{"source": "patent US20260062387A1", "about": "“SALT-INDUCIBLE KINASE INHIBITOR COMPOUND AND PHARMACEUTICAL COMPOSITION INCLUDING THE SAME” (MITSUBISHI TANABE PHARMA CORPORATION, priority 2023, published 2026)", "key": {"GST-tagged SIK1": {"target": "GST-tagged SIK1 (Homo sapiens (Human), UniProt P57059)", "sequence (P57059 whole entry)": "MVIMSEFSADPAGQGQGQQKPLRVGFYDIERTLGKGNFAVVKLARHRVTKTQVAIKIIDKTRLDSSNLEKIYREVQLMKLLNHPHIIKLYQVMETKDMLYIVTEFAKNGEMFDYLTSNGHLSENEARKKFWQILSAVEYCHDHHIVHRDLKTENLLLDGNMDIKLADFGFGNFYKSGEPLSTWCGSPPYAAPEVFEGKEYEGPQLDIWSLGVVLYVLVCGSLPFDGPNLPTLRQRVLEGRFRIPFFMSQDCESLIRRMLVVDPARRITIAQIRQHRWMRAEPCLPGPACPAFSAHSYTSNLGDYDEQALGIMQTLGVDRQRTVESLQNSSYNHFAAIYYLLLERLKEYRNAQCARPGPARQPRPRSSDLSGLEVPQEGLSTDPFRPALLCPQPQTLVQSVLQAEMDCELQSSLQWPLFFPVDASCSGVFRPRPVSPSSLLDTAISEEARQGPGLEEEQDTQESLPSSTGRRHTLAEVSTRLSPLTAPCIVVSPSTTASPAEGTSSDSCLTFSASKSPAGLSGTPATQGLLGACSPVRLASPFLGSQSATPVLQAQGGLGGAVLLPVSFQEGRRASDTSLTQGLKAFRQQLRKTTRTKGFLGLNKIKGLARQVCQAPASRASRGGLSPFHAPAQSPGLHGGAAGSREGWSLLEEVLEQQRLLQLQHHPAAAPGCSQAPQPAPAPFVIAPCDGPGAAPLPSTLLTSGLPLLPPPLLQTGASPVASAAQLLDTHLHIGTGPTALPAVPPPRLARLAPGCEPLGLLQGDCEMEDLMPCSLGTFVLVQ", "assay": "SIK1 inhibition test (ADP-Glo Max Assay)", "assay_type": "biochemical", "conditions": "enzyme 20 nM, AMARA Peptide 200 μM, ATP 1 mM, 2 hours room temperature", "procedure,_shortened": "(§1)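 GST-tagged human SIK1, SIK2 and SIK3 at 20 nM, 3 nM and 100 nM final in Tris pH 7.5 buffer, with AMARA peptide (200 μM for SIK1/SIK2, 100 μM for SIK3), 1 mM ATP and 5 mM MgCl2. Reaction ran 2 h at room temperature. ADP read by ADP-Glo Max luminescence, and IC50 fitted from 16 concentrations.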"}, "GST-tagged SIK2": {"target": "GST-tagged SIK2 (Homo sapiens (Human), UniProt Q9H0K1)", "sequence (Q9H0K1 whole entry)": "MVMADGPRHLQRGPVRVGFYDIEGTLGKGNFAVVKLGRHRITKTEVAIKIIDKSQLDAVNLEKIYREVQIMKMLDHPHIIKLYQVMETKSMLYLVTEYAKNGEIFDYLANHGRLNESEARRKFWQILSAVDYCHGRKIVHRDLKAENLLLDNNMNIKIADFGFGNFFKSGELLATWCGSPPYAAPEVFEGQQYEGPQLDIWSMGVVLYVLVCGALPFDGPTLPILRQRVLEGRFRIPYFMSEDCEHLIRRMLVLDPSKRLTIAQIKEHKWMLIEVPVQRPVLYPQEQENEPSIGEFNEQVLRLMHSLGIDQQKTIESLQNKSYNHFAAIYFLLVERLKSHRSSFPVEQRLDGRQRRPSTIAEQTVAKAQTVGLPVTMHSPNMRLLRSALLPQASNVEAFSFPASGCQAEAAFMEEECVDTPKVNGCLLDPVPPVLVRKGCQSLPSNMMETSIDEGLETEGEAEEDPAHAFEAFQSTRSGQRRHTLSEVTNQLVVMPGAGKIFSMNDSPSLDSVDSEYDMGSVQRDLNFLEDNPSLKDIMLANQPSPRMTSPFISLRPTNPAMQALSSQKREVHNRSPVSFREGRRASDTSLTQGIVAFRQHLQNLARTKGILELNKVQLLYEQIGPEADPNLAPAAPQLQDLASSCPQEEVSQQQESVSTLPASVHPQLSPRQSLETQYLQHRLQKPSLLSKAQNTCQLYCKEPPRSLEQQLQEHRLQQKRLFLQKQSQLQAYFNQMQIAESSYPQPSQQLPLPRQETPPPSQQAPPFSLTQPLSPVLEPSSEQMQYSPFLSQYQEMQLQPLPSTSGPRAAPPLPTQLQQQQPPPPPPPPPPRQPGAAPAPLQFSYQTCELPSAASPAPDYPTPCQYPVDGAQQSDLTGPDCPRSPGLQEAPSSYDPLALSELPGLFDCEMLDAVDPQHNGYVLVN", "assay": "SIK2 inhibition test (ADP-Glo Max Assay)", "assay_type": "biochemical", "conditions": "enzyme 3 nM, AMARA Peptide 200 μM, ATP 1 mM, 2 hours room temperature", "procedure,_shortened": "as §1"}, "GST-tagged SIK3": {"target": "GST-tagged SIK3 (Homo sapiens (Human), UniProt Q9Y2K2)", "sequence (Q9Y2K2 whole entry)": "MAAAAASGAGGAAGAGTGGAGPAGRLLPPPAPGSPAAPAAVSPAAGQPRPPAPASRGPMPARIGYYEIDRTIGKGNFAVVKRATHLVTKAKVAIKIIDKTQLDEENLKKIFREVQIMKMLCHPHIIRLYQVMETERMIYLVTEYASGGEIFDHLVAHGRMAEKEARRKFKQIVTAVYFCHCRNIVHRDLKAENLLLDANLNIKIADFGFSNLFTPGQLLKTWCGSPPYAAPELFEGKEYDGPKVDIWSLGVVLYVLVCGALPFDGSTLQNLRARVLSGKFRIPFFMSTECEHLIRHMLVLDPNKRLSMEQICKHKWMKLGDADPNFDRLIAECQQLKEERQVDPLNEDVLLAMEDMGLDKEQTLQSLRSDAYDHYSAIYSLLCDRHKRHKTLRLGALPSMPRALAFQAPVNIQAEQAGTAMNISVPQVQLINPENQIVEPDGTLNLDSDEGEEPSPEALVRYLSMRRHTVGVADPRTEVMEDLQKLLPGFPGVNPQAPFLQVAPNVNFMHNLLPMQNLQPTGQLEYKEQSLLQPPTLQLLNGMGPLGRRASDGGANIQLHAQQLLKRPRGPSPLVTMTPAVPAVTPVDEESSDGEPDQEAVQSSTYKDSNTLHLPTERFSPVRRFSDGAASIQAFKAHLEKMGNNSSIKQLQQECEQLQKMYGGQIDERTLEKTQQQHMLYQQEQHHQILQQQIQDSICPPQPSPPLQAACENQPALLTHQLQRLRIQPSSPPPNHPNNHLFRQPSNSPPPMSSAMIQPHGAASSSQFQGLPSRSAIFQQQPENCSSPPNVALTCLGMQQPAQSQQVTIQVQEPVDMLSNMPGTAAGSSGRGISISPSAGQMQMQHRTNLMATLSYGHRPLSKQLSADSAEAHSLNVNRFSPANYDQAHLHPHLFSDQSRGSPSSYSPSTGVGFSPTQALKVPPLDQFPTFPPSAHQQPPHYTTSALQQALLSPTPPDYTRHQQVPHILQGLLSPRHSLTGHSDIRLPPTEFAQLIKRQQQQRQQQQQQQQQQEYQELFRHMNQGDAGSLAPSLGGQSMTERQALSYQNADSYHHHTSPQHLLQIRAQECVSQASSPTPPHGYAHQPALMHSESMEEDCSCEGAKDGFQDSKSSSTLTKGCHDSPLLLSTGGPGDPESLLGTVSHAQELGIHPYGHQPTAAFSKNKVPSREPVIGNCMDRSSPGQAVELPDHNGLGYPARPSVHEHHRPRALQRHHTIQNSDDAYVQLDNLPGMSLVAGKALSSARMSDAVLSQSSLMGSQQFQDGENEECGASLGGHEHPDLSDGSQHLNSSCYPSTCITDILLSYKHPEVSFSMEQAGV", "assay": "SIK3 inhibition test (ADP-Glo Max Assay)", "assay_type": "biochemical", "conditions": "enzyme 100 nM, AMARA Peptide 100 μM, ATP 1 mM, 2 hours room temperature", "procedure,_shortened": "as §1"}, "[1]": {"test_system": "TNF-α production in LPS-stimulated human monocytes", "assay": "TNF-α production inhibition test in LPS-stimulated human monocytes", "assay_type": "cell-based", "conditions": "Monocyte, LPS 100 ng/mL, 4 hours", "method": "(§2) The compound of Example 106 was used as the test compound.\nCryopreserved mononuclear cells derived from human peripheral blood (LONZA K. K.) were thawed at 37° C., and human monocytes were isolated using CD14 Microfleads (Miltenyi Biotec). The isolated human monocytes were mixed with a culture medium (RPMI 1640, 10% FBS, penicillin, streptomycin), and a DMSO solution of a concentration of the test compound was added. The mixture was incubated at 37° C. for 30 minutes. After the incubation, lipopolysaccharide (LPS; Sigma Aldrich) was added so that the final concentration would be 100 ng/mL. The mixture was incubated at 37° C. for 4 hours. After the incubation, the supernatant was recovered and cryopreserved at −80° C. The cryopreserved supernatant was thawed and the amount of TNF-α production in the supernatant was measured using CBA Human TNF Flex Set (BD Bioscience).\nInhibitory ratio (%) was calculated by: % Inhibition={1−(amount of TNF-α production in sample−amount of TNF-α production without stimulus (DMSO added, not LPS-stimulated))/(amount of TNF-α production in control (DMSO added, LPS-stimulated)−amount of TNF-α production without stimulus (DMSO added, not LPS-stimulated))}×100. The inhibitory concentration IC50was calculated based on 4 data values obtained in the concentration response test."}, "[2]": {"test_system": "TNF-α in serum of LPS-stimulated mice", "assay": "TNF-α increase inhibition test in LPS-stimulated mouse serums", "assay_type": "in vivo, BALB/c mice", "conditions": "1 mg/kg oral, LPS intraperitoneal 30 minutes later, serum 1.5 hours later", "method": "as §2\nSix-week old male BALB/c mice were orally administered with a suspension (10 mL/kg) of a concentration of the test compound in 0.5% methylcellulose (MC) solution. 30 Minutes later, […] of LPS (Sigma Aldrich) was intraperitoneally administered. […] The amount of TNF-α production in the serum was measured using CBA […] TNF Flex Set (BD Bioscience).\nThe inhibitory ratio (%) was calculated by: % Inhibition={1−(amount of TNF-α production in sample−average amount of TNF-α production without stimulus (MC administered, not LPS-stimulated)/(average amount of TNF-α production in control (MC administered, LPS-stimulated)−average amount of TNF-α production without stimulus (MC administered, not LPS-stimulated))}×100. The results are described in Table 4 below."}}, "note": "Marks after values point to notes of the source that are not given here.", "data": [{"smiles": "CCCn1cc(-c2cc(C#N)c3c(-c4cc(OC)c5c(c4)[C@@H](C)CNC5=O)n(C)nc3c2)cn1", "note": "(single isomer, unassigned) [Example 106]", "values": [{"measurement": "IC50", "setting": "GST-tagged SIK1", "result": 8, "unit": "nM"}, {"measurement": "IC50", "setting": "GST-tagged SIK2", "result": 3.1, "unit": "nM"}, {"measurement": "IC50", "setting": "GST-tagged SIK3", "result": 6.8, "unit": "nM"}, {"measurement": "IC50", "setting": "[1]", "result": 19, "unit": "nM"}, {"measurement": "TNF α increase inhibition ratio", "setting": "[2]", "result": "47.2** %"}]}, {"smiles": "COc1cc(-c2c3c(C(F)F)cc(-c4cnn([C@@H]5CCOC5)c4)cc3nn2C)cc(OC(F)F)c1C(N)=O", "note": "[Example 159, 2-(difluoromethoxy)-4-[4-(difluoromethyl)-2-methyl-6-[1-[(3R)-oxolan-3-yl]pyrazol-4-yl]indazol-3-yl]-6-methoxybenzamide]", "values": [{"measurement": "IC50", "setting": "GST-tagged SIK1", "result": 13.8, "unit": "nM"}, {"measurement": "IC50", "setting": "GST-tagged SIK2", "result": 2.8, "unit": "nM"}, {"measurement": "IC50", "setting": "GST-tagged SIK3", "result": 4.6, "unit": "nM"}]}, {"smiles": "CC1CNC(=O)c2c(OC(F)F)cc(-c3c4c(C#N)cc(-c5cnn(C)c5)cc4nn3C)cc21", "note": "(centres unmarked) [Example 160, 3-[8-(difluoromethoxy)-4-methyl-1-oxo-3,4-dihydro-2H-isoquinolin-6-yl]-2-methyl-6-(1-methylpyrazol-4-yl)indazol-4-carbonitrile]", "values": [{"measurement": "IC50", "setting": "GST-tagged SIK1", "result": 7.5, "unit": "nM"}, {"measurement": "IC50", "setting": "GST-tagged SIK2", "result": 1, "unit": "nM"}, {"measurement": "IC50", "setting": "GST-tagged SIK3", "result": 3, "unit": "nM"}]}, {"smiles": "COc1cc(-c2cnn(C)c2)cc2nn(C)c(-c3cc(OC(F)F)c4c(c3)C(C)CNC4=O)c12", "note": "(centres unmarked) [Example 161, 8-(difluoromethoxy)-6-[4-methoxy-2-methyl-6-(1-methylpyrazol-4-yl)indazol-3-yl]-4-methyl-3,4-dihydro-2H-isoquinolin-1-one]", "values": [{"measurement": "IC50", "setting": "GST-tagged SIK1", "result": 5.6, "unit": "nM"}, {"measurement": "IC50", "setting": "GST-tagged SIK2", "result": 1.3, "unit": "nM"}, {"measurement": "IC50", "setting": "GST-tagged SIK3", "result": 10, "unit": "nM"}]}, {"smiles": "Cn1cc(-c2cc(C#N)c3c(-c4cc(OC(F)F)c5c(c4)C(C)(C)CNC5=O)n(C)nc3c2)cn1", "note": "[Example 162, 3-[8-(difluoromethoxy)-4,4-dimethyl-1-oxo-2,3-dihydroisoquinolin-6-yl]-2-methyl-6-(1-methylpyrazol-4-yl)indazol-4-carbonitrile]", "values": [{"measurement": "IC50", "setting": "GST-tagged SIK1", "result": 8.1, "unit": "nM"}, {"measurement": "IC50", "setting": "GST-tagged SIK2", "result": 2.5, "unit": "nM"}, {"measurement": "IC50", "setting": "GST-tagged SIK3", "result": 3.2, "unit": "nM"}]}]}
